How the values were obtained:
[1] = test system: tail bleeding time of the mouse; assay: evaluation of bleeding risk, tail bleeding time; assay type: in vivo, C57BL/6 mice; conditions: 80 mg/kg by gavage; 3, 6 and 12 hours after administration; mice
Method: This embodiment relates to an evaluation of bleeding risk of 3,4,7-trihydroxyisoflavone and 3-methoxydaidzein.
Each group included 8 male C57BL/6 (18-20 g). The test sample group and the control group were administered by gavage. After 3, 6 and 12 hours of administration, the mice were placed into a self-made special holder to make the tails pass through a trimmed 1 mL pipette tip. 5 mm of the tail tip was cut off with a sterilized razor blade, and the mouse tail was immediately immersed into normal saline at 37° C. The bleeding time of the tail was observed by using the bloodstream stop time as an indicator.

[2] = test system: washed human platelets; assay: collagen-induced platelet aggregation in washed human platelets; assay type: cell-based; conditions: 0.6 μg/mL collagen
Method: The collagen-induced platelet aggregation was detected by using washed human platelets. […] The platelet washing method was as follows: a. 1.4 mL platelets (concentrated platelet plasma) were poured into each 1.5 mL EP tube, and centrifuged at 400 g under room temperature for 5 min, and the supernatant was discarded; b. the platelets in each tube were resuspended with 0.5 mL of a tyrode A solution, and two tubes of resuspended platelets were combined into a new 1.5 mL EP tube, mixed well and centrifuged at 400 g under room temperature for 5 min; c. the platelets in each tube were resuspended with 1 mL of the tyrode A solution, transferred into a new EP tube, and centrifuged at room temperature at 400 g under room temperature for 5 min; d. the platelets in each tube were resuspended with 1 mL of a tyrode B solution, and the platelets were adjusted to an appropriate concentration with the tyrode B solution.

[3] = test system: mouse-tail thrombus; assay: carrageenan-induced mouse-tail thrombosis model; assay type: in vivo, Kunming mice; conditions: 24 h; for rate of thrombus inhibition versus dose: gavage 33, 100 and 300 μmol/kg; for rate of thrombus inhibition versus dose / inhibition of thrombosis in mouse tail versus negative control: carrageenan 40 mg/kg i.p.
Method: This embodiment relates to a carrageenan-induced mouse-tail thrombosis model.
The experiment animals, male Kunming mice, each with a body weight of 20-25 g, were randomly divided into groups (n=10) after fed for one week. The first group was a DMSO control group, the sample groups were gavaged with 3,4,7-trihydroxyisoflavone and 3-methoxydaidzein at concentrations respectively of 33, 100 and 300 μmol/kg, and the positive control was gavaged with 300 μmol/kg clopidogrel. 30 min after intragastric administration, carrageenan (type I, Sigma) was injected intraperitoneally into the mice at a dose of 40 mg/kg. Since the rate of thrombosis was >90% at a low temperature, the feeding temperature was 18° C. After 24 h, the mean length of thrombosis was determined according to the color change of the tail skin.

[4] = test system: Healthy human platelets; assay: ADP-induced platelet aggregation in PRP; assay type: cell-based; conditions: 70 μmol/L ADP; for concentration dependence of inhibition of ADP-induced platelet aggregation: FIGS. 3 and 4
Method: Healthy human platelets were diluted with plasma to 2.5×10^8 platelets per mL. 300 μL of plasma-rich platelets was taken, added into different concentrations of samples at 37° C. and maintained at this temperature for 5 min, then added with 70 μmol/L ADP to induce aggregation, and an aggregation curve within 5 min was plotted on a platelet aggregation instrument. Platelet aggregation without sample treatment was used as a control.
300 μM of 3-methoxydaidzein could inhibit about 50% of platelet aggregation, while 100 μM of 3,4,7-trihydroxyisoflavone could inhibit about 50% of platelet aggregation.

SMILES | tail bleeding activity versus non-administrated group (FIG. 8) [1] | concentration dependence of inhibition of collagen-induced platelet aggregation ([2]; FIGS. 1 and 2) | inhibition of platelet aggregation ([2]; 20 μM compound, washed human platelets) | average thrombus length compared with clopidogrel ([3]; gavage 300 μmol/kg, compared with 300 μmol/kg clopidogrel) | rate of thrombus inhibition versus dose [3] | inhibition of thrombosis in mouse tail versus negative control ([3]; oral 100 μmol/kg) | concentration dependence of inhibition of ADP-induced platelet aggregation [4] | inhibition at 100 µM ([4]; Homo sapiens, Platelet, 100 μM compound) | tail bleeding activity versus non-administrated group (FIG. 9) [1] | inhibition at 20 µM ([2]; Platelet, 20 μM compound, washed human platelets) | inhibition of thrombosis in mouse tail versus negative control ([3]; oral 300 μmol/kg) | inhibition at 300 µM ([4]; Homo sapiens, Platelet, 300 μM compound)
O=c1c(-c2ccc(O)c(O)c2)coc2cc(O)ccc12 [3,4,7-trihydroxyisoflavone] | did not show any significant bleeding activity | gradient-dependent manner | completely inhibit | shorter than that of the group gavaged with 300 μmol/kg of clopidogrel | increased along with the increase of concentration | significantly inhibit | gradient-dependent manner | ~50% | – | – | – | –
COc1cc(-c2coc3cc(O)ccc3c2=O)ccc1O [3-methoxydaidzein] | – | – | – | – | increased along with the increase of concentration | – | gradient-dependent manner | – | did not show any significant bleeding activity | ~50% | significantly inhibit | ~50%
COC(=O)[C@H](c1ccccc1Cl)N1CCc2sccc2C1 [clopidogrel, reference compound] | increased bleeding significantly | – | – | – | – | – | – | – | increased bleeding significantly | – | – | –

— patent US20190183851A1, “USE OF 3,4,7-TRIHYDROXYISOFLAVONE OR 3-METHOXYDAIDZEIN IN PREPARATION OF DRUG FOR INHIBITING PLATELET AGGREGATION AND THROMBOSIS” (Kunming Institute of Zoology, Chinese Academy of Sciences, priority 2017, published 2019)
